According to patent US7935708B2, “Dihydropyrazolopyrimidinone derivatives” (MSD K.K., priority 2006, dated 2011):

System: Human colon cancer cells (WiDr)
Assay: Checkpoint escape effect in gemcitabine-treated WiDr cells (phosphorylated histone H3-positive cells)
Assay type: cell-based
Conditions: gemcitabine 100 nM 24 hours, then test compound with nocodazole 8 hours
Source text: Pharmaceutical Text 3 (Method of Determining Drug Potency in Cells (Checkpoint-Removing Effect))
Fetal bovine serum (FBS) was obtained from Morgate; DMEM was from Invitrogen; gemcitabine was from Nippon Eli Lilly; nocodazole and 4′,6-diamidino-2-phenylindole were from Sigma; rabbit anti-phosphorylated histone H3 antibody was from Upstate; and fluorescence-labeled (Alexa Fluor 488) anti-rabbit IgG antibody was from Molecular Probe.
Human colon cancer cells (WiDr) were obtained from American Type Culture Collection (ATCC).
c) Method of Effect Determination:
The cells were suspended in DMEM containing 10% FBS, and the cell suspension was applied to a poly-D-lysine-coated 96-well plastic plate (bought from Becton Dickinson) in an amount of 2000 cells/100 μL/well, in which the cells were incubated overnight in 5% CO2-95% air at 37° C. Gemcitabine was dissolved in phosphate-buffered saline (PBS), and diluted with DMEM containing 10% FBS, and then this was applied to the plate on which the cells had been previously sowed, in an amount of 50 μL/well in such a manner that the final concentration of gemcitabine could be 100 nM. Then, the cells were incubated for 24 hours at 37° C. in 5% CO2-95% air. The test compound was stepwise diluted with dimethylsulfoxide, then diluted with 1200 nM nocodazole-containing DMEM containing 10% FBS, and applied to the plate on which the gemcitabine-treated cells had been sowed, in an amount of 50 μL/well. […] Next, this was washed with PBS, and a solution containing 4′,6-diamidino-2-phenylindole that had been diluted with 1% BSA/PBS to have a concentration 10 μg/mL and a fluorescence-labeled (Alexa Fluor 488) anti-rabbit IgG antibody that had been diluted 250-fold was added to it in an amount 50 μL/well, and reacted in a dark place at room temperature for 60 minutes. Finally, this was washed with PBS, and its fluorescence intensity was determined to calculate the ratio of the phosphorylated histone H3-positive cells (cells that had been in a cell division cycle through removal of checkpoint). […]

| EC50 [nM] | SMILES |
| --- | --- |
| 268 | C=CCn1c(=O)c2cnc(Nc3ccc(N4CCN(C)CC4)c(CO)c3)nc2n1-c1ccsc1 [Example 3, 2-allyl-6-{[3-(hydroxymethyl)-4-(4-methylpiperazin-1-yl)phenyl]amino}-1-(3-thienyl)-1,2-dihydro-3H-pyrazolo[3,4-d]pyrimidin-3-one] |
| 100 | C=CCn1c(=O)c2cnc(Nc3ccc(N4CCN(C)CC4)cc3)nc2n1-c1cccc(N2CCN(C)C2=O)n1 [Example 148, 2-allyl-1-[6-(3-methyl-2-oxoimidazolidin-1-yl)pyridin-2-yl]-6-{[4-(4-methylpiperazin-1-yl)phenyl]amino}-1,2-dihydro-3H-pyrazolo[3,4-d]pyrimidin-3-one] |
